This note sets out measurements from ChEMBL document CHEMBL4610128, “Structural and Mechanistic Basis of the Inhibitory Potency of Selected 2-Aminothiazole Compounds on Protein Kinase CK2” (J Med Chem, 2020).

Experiment [1] concerns the target Casein kinase II alpha'/ beta (Homo sapiens) (UniProt P67870+P19784). The experiment is described as follows: Ratio of Ki for ATP uncompetitive inhibition to Ki for ATP competitive inhibition of recombinant human CK2alpha2 (1 to 335 residues)/CK2beta2 (1 to 193 residues) expressed in Escherichia coli BL21(DE3).
For experiment [2], the target named is Casein kinase II alpha/beta (Homo sapiens, UniProt P68400). Nature of the experiment: ATP competitive inhibition of recombinant human CK2alpha2 (1 to 335 residues)/CK2beta2 (1 to 193 residues) expressed in Escherichia coli BL21(DE3) using RRRDDDSDDD as substrate preincubated for 10 mins followed by substrate addition and measured after 5 mins in presence of varying level of [gamma-32P]ATP by Dixon-plot analysis.

As to `O=C(O)c1ccc(Nc2nc(-c3ccc(Cl)cc3)cs2)cc1O`, the Ratio Ki in experiment [1] is 16.3. The Ki in experiment [2] was found to be 0.206 µM.
Regarding `O=C(O)c1cccc(Nc2nc(-c3ccccn3)cs2)c1`, the Ratio Ki in experiment [1] is 36.5. Further, in experiment [2], the Ki is 1.47 µM.
